Biological target: T1, purified Hemoglobin S (HbS) (Homo sapiens, UniProt P68871+P69905, E7V)
T1 construct: HbS was purified by a modified procedure; from tissue; host or cells: blood of homozygous sickle cell patients (CHORI); for the polymerization assay purified by the CRO VIRUSYS
Experiment: Modulation of hemoglobin oxygen affinity: oxygen equilibrium curves (HEMOX) in purified HbS
Type: biochemical, human (homozygous sickle cell patients)
Details: compound at 30 μM; 25 μM purified HbS, 45 min at 37° C.
Protocol: Oxygen equilibrium curves (OEC) in purified Hemoglobin S (HbS) were measured by the change in p50, the partial pressure of oxygen at which the heme binding sites in the HbS sample are 50% saturated with oxygen. HbS was purified by a modified procedure (Antonini and Brunori, 1971; Heomoglobin and Myoglobin in their Reactions with Ligands; North Holland Publishing Company; Amsterdam, London) from blood obtained from homozygous sickle cell patients though the Hemoglobinopathy Center at Children's Hospital Oakland Research Institute (CHORI) with Institutional Review Board approval. Oxygen equilibrium curves were carried out with a HEMOX analyzer, (TCS Scientific, New Hope, Pa.). Five hundred μL of 250 μM purified HbS were diluted into 4.5 mL of HEMOX buffer (30 mM TES, 130 mM NaCl, 5 mM KCl, pH=7.4) resulting in a final hemoglobin concentration of 25 μM. The compounds were added at the final desired concentrations. The mixture was incubated for 45 min at 37° C. and then transferred to the Hemox sample chamber. The samples were saturated with oxygen by flushing with compressed air for 10 minutes. The samples were then flushed with pure nitrogen and the absorbance of deoxy-Hb was recorded as a function of the solution pO2. The oxygen equilibrium data was then fit to the Hill Model to obtain values for p50. The deoxygenation curves for both HbS alone (control) and HbS in the presence of compound were collected with the TCS software. The p50 for purified Hbs was typically 13.8±1.6. Delta p50 values were obtained from the p50 value for control minus the p50 value for HbS treated with compound divided by the p50 value for the control.
The compounds of Table 1 that were where tested in the assay above were all found to have positive delta p50 values. Delta p50% is calculated from [[p50(HbS) −p50(HbS treated with compound)]/p50(HbS)]×100. Table 2 below lists the delta p50% values where + indicates a delta p50% of between 0 and 29, ++ indicates a delta p50% of between 30 and 50, and +++ indicates a delta p50% of 50 or greater. Unless noted otherwise, the compounds in Table 2 were tested at 30 μM.

SMILES	delta p50%
O=Cc1cnccc1OCc1cccnc1 [Compound 1, 4-(pyridin-3-ylmethoxy)nicotinaldehyde]	+ (a delta p50% of between 0 and 29)
COc1cc(C=O)c(OCc2cn3cccc(-c4ccnn4C)c3n2)cn1 [Compound 61, 2-methoxy-5-((8-(1-methyl-1H-pyrazol-5-yl)imidazo[1,2-a]pyridin-2-yl)methoxy)isonicotinaldehyde]	+ (a delta p50% of between 0 and 29)
COc1cc(C=O)c(OCc2cncc(-c3cn[nH]c3)c2)cn1 [Compound 76, 5-((5-(1H-pyrazol-4-yl)pyridin-3-yl)methoxy)-2-methoxyisonicotinaldehyde]	+ (a delta p50% of between 0 and 29)
COc1cc(C=O)c(OCc2cccnc2C#N)cn1 [Compound 64, 3-((4-formyl-6-methoxypyridin-3-yloxy)methyl)picolinonitrile]	+ (a delta p50% of between 0 and 29)
CNC(=O)c1cccn2cc(COc3cnc(OC)cc3C(O)O)nc12 [Compound 72, 2-((4-(dihydroxymethyl)-6-methoxypyridin-3-yloxy)methyl)-N-methylimidazo[1,2-a]pyridine-8-carboxamide]	+ (a delta p50% of between 0 and 29)
O=Cc1ccncc1OCc1cccn2ccnc12 [Compound 6, 3-(imidazo[1,2-a]pyridin-8-ylmethoxy)isonicotinaldehyde]	+ (a delta p50% of between 0 and 29)
COc1cc(C=O)c(OCc2cncc(-c3ccn(C)n3)c2)cn1 [Compound 75, 2-methoxy-5-((5-(1-methyl-1H-pyrazol-3-yl)pyridin-3-yl)methoxy)isonicotinaldehyde]	+ (a delta p50% of between 0 and 29)
COc1cc(C=O)c(OCc2nc3ccccn3c2-c2ccn[nH]2)cn1 [Compound 59, 5-((3-(1H-pyrazol-5-yl)imidazo[1,2-a]pyridin-2-yl)methoxy)-2-methoxyisonicotinaldehyde]	+ (a delta p50% of between 0 and 29)
O=Cc1ccncc1NC(=O)c1cccn2ccnc12 [Compound 51, N-(4-formylpyridin-3-yl)imidazo[1,2-a]pyridine-8-carboxamide]	+ (a delta p50% of between 0 and 29)
Cc1ccc(OCc2cccn3ccnc23)c(C=O)n1 [Compound 49, 3-(imidazo[1,2-a]pyridin-8-ylmethoxy)-6-methylpicolinaldehyde]	++ (a delta p50% of between 30 and 50)
COc1cc(C(O)O)c(OCc2cn3cccc(C(N)=O)c3n2)cn1 [Compound 73, 2-((4-(dihydroxymethyl)-6-methoxypyridin-3-yloxy)methyl)imidazo[1,2-a]pyridine-8-carboxamide]	+ (a delta p50% of between 0 and 29)
COc1cc(C=O)c(OCc2cccc3[nH]ncc23)cn1 [Compound 87, 5-((1H-indazol-4-yl)methoxy)-2-methoxyisonicotinaldehyde]	+ (a delta p50% of between 0 and 29)
Cc1ccc(OCc2cccc3c2cnn3C)c(C=O)n1 [Compound 85, 6-methyl-3-((1-methyl-1H-indazol-4-yl)methoxy)picolinaldehyde]	+ (a delta p50% of between 0 and 29)
COc1cc(C=O)c(OCc2cnccc2-c2ccn[nH]2)cn1 [Compound 71, 5-((4-(1H-pyrazol-5-yl)pyridin-3-yl)methoxy)-2-methoxyisonicotinaldehyde]	+ (a delta p50% of between 0 and 29)
COc1cc(C=O)c(OCc2ccncc2C)cn1 [Compound 47, 2-methoxy-5-((3-methylpyridin-4-yl)methoxy)isonicotinaldehyde]	+ (a delta p50% of between 0 and 29)
COc1cc(C2OCCO2)c(OCc2cn3cccc(C(N)=O)c3n2)cn1 [Compound 68, 2-((4-(1,3-dioxolan-2-yl)-6-methoxypyridin-3-yloxy)methyl)imidazo[1,2-a]pyridine-8-carboxamide]	+ (a delta p50% of between 0 and 29)

Next, values leading:

delta p50%	SMILES
+ (a delta p50% of between 0 and 29)	COC(=O)c1cncc(COC(=O)c2cncc(COc3cnc(OC)cc3C=O)c2)c1 [Compound 141, (5-(methoxycarbonyl)pyridin-3-yl)methyl 5-(((4-formyl-6-methoxypyridin-3-yl)oxy)methyl)nicotinate]
+ (a delta p50% of between 0 and 29)	COc1cc(C=O)c(OCc2cccc3cnn(C)c23)cn1 [Compound 90, 2-methoxy-5-((1-methyl-1H-indazol-7-yl)methoxy)isonicotinaldehyde]
+ (a delta p50% of between 0 and 29)	COc1cc(C=O)c(OCc2cccnc2-c2cnn(C)c2)cn1 [Compound 127, 2-methoxy-5-((2-(1-methyl-1H-pyrazol-4-yl)pyridin-3-yl)methoxy)isonicotinaldehyde]
+ (a delta p50% of between 0 and 29)	Cc1ccc(OCc2cccc3[nH]ncc23)c(C=O)n1 [Compound 88, 3-((1H-indazol-4-yl)methoxy)-6-methylpicolinaldehyde]
+ (a delta p50% of between 0 and 29)	COc1cc(C=O)c(OCc2cc(-c3ccn[nH]3)cn3ccnc23)cn1 [Compound 104, 5-((6-(1H-pyrazol-5-yl)imidazo[1,2-a]pyridin-8-yl)methoxy)-2-methoxyisonicotinaldehyde]
+ (a delta p50% of between 0 and 29)	COc1cc(C=O)c(OCc2cncc(C(N)=O)c2)cn1 [Compound 101, 5-((4-formyl-6-methoxypyridin-3-yloxy)methyl)nicotinamide]
+ (a delta p50% of between 0 and 29)	Cc1ccc(OCc2cccnc2-n2cccn2)c(C=O)n1 [Compound 135, 3-((2-(1H-pyrazol-1-yl)pyridin-3-yl)methoxy)-6-methylpicolinaldehyde]
+ (a delta p50% of between 0 and 29)	COc1cc(C=O)c(OCc2cncc(C#N)c2)cn1 [Compound 98, 5-((4-formyl-6-methoxypyridin-3-yloxy)methyl)nicotinonitrile]
+ (a delta p50% of between 0 and 29)	COc1cc(C=O)c(OCc2cc(Br)cn3ccnc23)cn1 [Compound 96, 5-((6-bromoimidazo[1,2-a]pyridin-8-yl)methoxy)-2-methoxyisonicotinaldehyde]
+ (a delta p50% of between 0 and 29)	COc1cc(C=O)c(OCc2cncc(-c3nn[nH]n3)c2)cn1 [Compound 124, 5-((5-(2H-tetrazol-5-yl)pyridin-3-yl)methoxy)-2-methoxyisonicotinaldehyde]
+ (a delta p50% of between 0 and 29)	COc1cc(C=O)c(OCc2cc(C(N)=O)cn3ccnc23)cn1 [Compound 100, 8-((4-formyl-6-methoxypyridin-3-yloxy)methyl)imidazo[1,2-a]pyridine-6-carboxamide]
+ (a delta p50% of between 0 and 29)	COc1cc(C=O)c(OCc2cc(C#N)cn3ccnc23)cn1 [Compound 97, 8-((4-formyl-6-methoxypyridin-3-yloxy)methyl)imidazo[1,2-a]pyridine-6-carbonitrile]
+ (a delta p50% of between 0 and 29)	Cc1ccc(OCc2cccnc2)c(C=O)n1 [Compound 136, 6-methyl-3-(pyridin-3-ylmethoxy)picolinaldehyde]
+ (a delta p50% of between 0 and 29)	COC(=O)c1cc(COc2cnc(OC)cc2C=O)c2nccn2c1 [Compound 137, methyl 8-(((4-formyl-6-methoxypyridin-3-yl)oxy)methyl)imidazo[1,2-a]pyridine-6-carboxylate]
+ (a delta p50% of between 0 and 29)	COc1ccc(OCc2ccc3cnn(C)c3c2)c(C=O)n1 [Compound 89, 6-methoxy-3-((1-methyl-1H-indazol-6-yl)methoxy)picolinaldehyde]
+ (a delta p50% of between 0 and 29)	COc1cc(C=O)c(OCc2cnc3c(cnn3C)c2)cn1 [Compound 122, 2-methoxy-5-((1-methyl-1H-pyrazolo[3,4-b]pyridin-5-yl)methoxy)isonicotinaldehyde]

Same assay, conditions: compound at 100 μM; 25 μM purified HbS, 45 min at 37° C.

delta p50%	SMILES
++ (a delta p50% of between 30 and 50)	COc1cc(C=O)c(OCc2ccn(C)c(=O)c2)cn1 [Compound 54, 2-methoxy-5-((1-methyl-2-oxo-1,2-dihydropyridin-4-yl)methoxy)isonicotinaldehyde]
+ (a delta p50% of between 0 and 29)	O=Cc1cccnc1CCc1cccn2ccnc12 [Compound 12, 2-(2-(imidazo[1,2-a]pyridin-8-yl)ethyl)nicotinaldehyde]
+ (a delta p50% of between 0 and 29)	COc1cc(C=O)c(OCc2nc3ccccn3c2Br)cn1 [Compound 55, 5-((3-bromoimidazo[1,2-a]pyridin-2-yl)methoxy)-2-methoxyisonicotinaldehyde]

— patent US10377741B2, “Substituted heteroaryl aldehyde compounds and methods for their use in increasing tissue oxygenation” (Global Blood Therapeutics, Inc., priority 2011, dated 2019)
